Reference: patent US6235929A, “Tripeptide α-ketoamides” (Georgia Tech Research Corporation, priority 1996, dated 2001)

How the values were obtained:
[1] = target: Calpain II from rabbit muscle; experiment: Calpain II inhibition, Suc-Leu-Tyr-AMC hydrolysis; assay type: biochemical
Procedure: HEPES, heparin, and A23187 were obtained from Calbiochem. […] Calpain II from rabbit muscle and cathepsin B were purchased from Sigma. Papain was purchased from Calbiochem.
(§1) Peptide α-ketoamides were assayed as reversible enzyme inhibitors. Various concentrations of inhibitors in Me2 SO were added to the assay mixture which contained buffer and substrate. The reaction was started by the addition of the enzyme and the hydrolysis rates were followed spectrophotometrically or fluorimetrically.
(§2) Calpain I from human erythrocytes and calpain II from rabbit were assayed using Suc-Leu-Tyr-AMC [Sasaki et al., J. Biol. Chem. 259, 12489-12494 (1984); incorporated herein by reference], and the AMC (7-amino-4-methylcoumarin) release was followed fluorimetrically (excitation at 380 nm, and emmision at 460 nm). Calpains were assayed in 25 mM Tris pH=8.0, 10 mM CaCl2. Fluorescence was followed using a Gilson FL-1A fluorometer or a Perkin-Elmer 203 Fluorescence spectrometer. Cathepsin B was assayed in 20 mM sodium acetate pH=5.2, 0.5 mM dithiothreitol using Bz-Phe-Val-Arg-p-nitroanilide as substrate. Alternately, cathepsin B was assayed with Z-Arg-Arg-AFC [Barrett and Kirschke, Methods Enzymol. […] Enzymatic hydrolysis rates were measured at various substrate and inhibitor concentrations, and KI values were determined by either Lineweaver-Burk plots or Dixon plots. […]

Half-life in plasma = conditions: unit inferred, unit assumed
Half-life in liver = assay type: in vitro ADME; conditions: unit inferred, unit assumed
[2] = target: T1, Calpain I from human erythrocytes (Homo sapiens, UniProt P07384); experiment: Calpain I inhibition, Suc-Leu-Tyr-AMC hydrolysis; assay type: biochemical; conditions: ratio of KI values
T1 construct: Calpain I was purified from human erythrocytes; from tissue; host or cells: human erythrocytes
T1 sequence (P07384 1-714): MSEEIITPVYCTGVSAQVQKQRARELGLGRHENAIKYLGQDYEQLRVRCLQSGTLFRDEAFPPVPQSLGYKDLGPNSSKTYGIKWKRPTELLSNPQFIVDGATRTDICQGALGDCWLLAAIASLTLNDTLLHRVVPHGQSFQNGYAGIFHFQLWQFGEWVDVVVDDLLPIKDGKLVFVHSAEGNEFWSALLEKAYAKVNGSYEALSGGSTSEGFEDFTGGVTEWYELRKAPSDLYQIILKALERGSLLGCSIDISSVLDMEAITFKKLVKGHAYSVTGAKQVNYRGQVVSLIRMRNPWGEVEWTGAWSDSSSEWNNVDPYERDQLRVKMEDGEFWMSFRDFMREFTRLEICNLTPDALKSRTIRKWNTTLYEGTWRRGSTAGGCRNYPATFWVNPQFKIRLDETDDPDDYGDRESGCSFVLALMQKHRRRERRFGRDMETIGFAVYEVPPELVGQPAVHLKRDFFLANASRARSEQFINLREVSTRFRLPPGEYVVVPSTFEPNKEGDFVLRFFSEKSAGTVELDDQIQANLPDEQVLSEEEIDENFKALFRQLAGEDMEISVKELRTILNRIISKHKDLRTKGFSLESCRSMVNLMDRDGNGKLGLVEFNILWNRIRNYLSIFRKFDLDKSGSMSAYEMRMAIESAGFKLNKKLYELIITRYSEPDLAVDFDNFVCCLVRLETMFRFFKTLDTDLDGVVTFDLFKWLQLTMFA
T1 sequence (P04632 1-268 partner): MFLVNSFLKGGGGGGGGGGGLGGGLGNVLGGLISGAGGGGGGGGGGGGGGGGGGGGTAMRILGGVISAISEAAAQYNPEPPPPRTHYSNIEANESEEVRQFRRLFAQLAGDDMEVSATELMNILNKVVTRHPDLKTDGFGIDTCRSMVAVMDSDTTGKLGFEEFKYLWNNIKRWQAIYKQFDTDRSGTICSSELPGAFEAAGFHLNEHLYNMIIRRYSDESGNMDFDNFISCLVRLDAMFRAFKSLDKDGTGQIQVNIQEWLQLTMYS
Procedure: (§3) HEPES, heparin, and A23187 were obtained from Calbiochem. Suc--Leu--Tyr--AMC and chromogenic substrates were obtained from Sigma Calpain I was purified from human erythrocytes according to the method of Kitahara (Kitahara et al., J. Biochem. 95, 1759-1766) omitting the Blue-Sepharose step. Calpain II from rabbit muscle and cathepsin B were purchased from Sigma. Papain was purchased from Calbiochem.
as §1
as §2, with “spectrometer.” for “spectrometer. Cathepsin B was assayed in 20 mM sodium acetate pH=5.2, 0.5 mM dithiothreitol using Bz-Phe-Val-Arg-p-nitroanilide as substrate. Alternately, cathepsin B was assayed with Z-Arg-Arg-AFC [Barrett and Kirschke, Methods Enzymol.”

cathepsin B = target: T2, cathepsin B (Homo sapiens, UniProt P07858); experiment: Cathepsin B inhibition; assay type: biochemical
T2 construct: purchased Sigma
Procedure: as §3, §1
as §2, with “spectrometer.” for “spectrometer. Cathepsin B was assayed in 20 mM sodium acetate pH=5.2, 0.5 mM dithiothreitol using Bz-Phe-Val-Arg-p-nitroanilide as substrate. Alternately, cathepsin B was assayed with Z-Arg-Arg-AFC [Barrett and Kirschke, Methods Enzymol.”

| t1/2 plasma (Half-life in plasma) | t1/2 liver (Half-life in liver) | Structure (SMILES) | also measured |
| --- | --- | --- | --- |
|  |  | CC[C@H](NC(=O)[C@H](CC(C)C)NC(=O)OCc1ccccc1)C(=O)C(=O)NCCc1ccccc1 [Z-Leu-Abu-CONH--(CH2)2 -Ph, Z--Leu--Abu--CONH--(CH2)2 Ph] | KI Calpain II [1]: best inhibitor |
| > 60 min |  | CC(C)C[C@H](NC(=O)OCc1ccccc1)C(=O)N[C@@H](Cc1ccccc1)C(=O)C(=O)NCCc1ccccc1 [Z-Leu-Phe-CONH(CH2)2 Ph, Z--Leu--Phe--CONH--(CH2)2 Ph] |  |
| 7.8 min |  | CCOC(=O)C(=O)C(Cc1ccccc1)NC(=O)C(CC(C)C)NC(=O)OCc1ccccc1 (stereo not drawn) [Z-Leu-Phe-COOEt, Z--Leu--Phe--COOEt, reference compound] |  |
| > 60 min | > 60 min | CCC(NC(=O)C(CC(C)C)NC(=O)OCc1ccccc1)C(=O)C(=O)NCc1ccccc1 (stereo not drawn) [Z-Leu-Abu-CONH-Bzl, Z--Leu--Abu--CONH--Bzl] |  |
| > 60 min |  | CCOC(=O)C(=O)C(CC)NC(=O)C(CC(C)C)NC(=O)C(CC(C)C)NS(=O)(=O)c1ccc2ccccc2c1 (stereo not drawn) [2-NapSO2-Leu-Leu-Abu-COOEt, reference compound] |  |
| > 60 min | > 60 min | CCCCNC(=O)C(=O)C(CC)NC(=O)C(CC(C)C)NC(=O)OCc1ccccc1 (stereo not drawn) [Z-Leu-Abu-CONH-nBu, Z--Leu--Abu--CONH--nBu] |  |
| 25 min |  | CCOC(=O)C(=O)[C@H](CC)NC(=O)[C@H](CC(C)C)NC(=O)[C@H](CC(C)C)NC(=O)c1ccc2ccccc2c1 [2-NapCO-Leu-Leu-Abu-COOEt] |  |
| > 60 min | > 60 min | CC(C)CC(NC(=O)OCc1ccccc1)C(=O)NC(Cc1ccccc1)C(=O)C(=O)O (stereo not drawn) [Z-Leu-Phe-COOH, reference compound] |  |
| 2.8 min |  | CCCC(NC(=O)C(CC(C)C)NC(=O)OCc1ccccc1)C(=O)C(=O)OCC (stereo not drawn) [Z-Leu-Nva-COOEt, reference compound] |  |
| 8 min |  | CCOC(=O)C(=O)C(CCSC)NC(=O)C(CC(C)C)NC(=O)OCc1ccccc1 (stereo not drawn) [Z-Leu-Met-COOEt] |  |
| > 60 min | > 60 min | CCNC(=O)C(=O)[C@H](Cc1ccccc1)NC(=O)[C@H](CC(C)C)NC(=O)OCc1ccccc1 [Z-Leu-Phe-CONH-Et, Z--Leu--Phe--CONH--Et] |  |
| > 60 min | > 60 min | CCCNC(=O)C(=O)C(Cc1ccccc1)NC(=O)C(CC(C)C)NC(=O)OCc1ccccc1 (stereo not drawn) [Z-Leu-Phe-CONH-nPr, Z--Leu--Phe--CONH--nPr] |  |
| 3.7 min |  | CCCCC(NC(=O)C(CC(C)C)NC(=O)OCc1ccccc1)C(=O)C(=O)OCC (stereo not drawn) [Z-Leu-Nle-COOEt, reference compound] |  |
| > 60 min |  | CC(C)CNC(=O)C(=O)[C@H](Cc1ccccc1)NC(=O)[C@H](CC(C)C)NC(=O)OCc1ccccc1 [Z-Leu-Phe-CONH-iBu, Z--Leu--Phe--CONH--iBu] |  |
| > 60 min |  | CCC(NC(=O)C(CC(C)C)NC(=O)OCc1ccccc1)C(=O)C(=O)NCC(C)C (stereo not drawn) [Z-Leu-Abu-CONH-iBu, Z--Leu--Abu--CONH--iBu] |  |
| 2.8 min |  | CCOC(=O)C(=O)[C@H](CC)NC(=O)[C@H](CC(C)C)NC(=O)OCc1ccccc1 [Z-Leu-Abu-COOEt, reference compound] |  |
| > 60 min | > 60 min | CCCNC(=O)C(=O)[C@H](CC)NC(=O)[C@H](CC(C)C)NC(=O)OCc1ccccc1 [Z-Leu-Abu-CONH-nPr, Z--Leu--Abu--CONH--nPr] |  |
| 7.7 min |  | CCCCOC(=O)C(=O)[C@H](Cc1ccccc1)NC(=O)[C@H](CC(C)C)NC(=O)OCc1ccccc1 [Z-Leu-Phe-COOnBu] |  |
| > 60 min | > 60 min | CCC(NC(=O)C(CC(C)C)NC(=O)OCc1ccccc1)C(=O)C(=O)O (stereo not drawn) [Z-Leu-Abu-COOH, reference compound] |  |
| > 60 min | > 60 min | CCNC(=O)C(=O)[C@H](CC)NC(=O)[C@H](CC(C)C)NC(=O)OCc1ccccc1 [Z-Leu-Abu-CONH-Et, Z--Leu--Abu--CONH--Et] | fold better inhibitor of calpain I than Z--Leu--Phe--CONH--Et [2]: 14 fold; KI Cath B (cathepsin B): best inhibitor |
| 1.9 min |  | CC(C)CC(NC(=O)OCc1ccccc1)C(=O)NC(Cc1ccccc1)C(=O)C(=O)OCc1ccccc1 (stereo not drawn) [Z-Leu-Phe-COOBz] |  |
| > 60 min | > 60 min | CCCCNC(=O)C(=O)C(Cc1ccccc1)NC(=O)C(CC(C)C)NC(=O)OCc1ccccc1 (stereo not drawn) [Z-Leu-Phe-CONH-nBu, Z--Leu--Phe--CONH--nBu] |  |
